Source: patent publication US12037344B2, “NLRP3 modulators” (INNATE TUMOR IMMUNITY, INC., priority 2018, dated 2024)
Where two headings read alike, the source gives them in different places.

How the values were obtained:
TLR7 = target: T1, TLR7 (Homo sapiens, UniProt Q9NYK1); assay: In vitro human TLR7 binding reporter assay (HEK-Blue, NF-kB/AP1-inducible SEAP); assay type: cell-based; conditions: read-out: TLR7 Agonist EC50
T1 construct: human HEK-Blue cells co-expressing a TLR7 or TLR8 gene
T1 sequence (Q9NYK1 27-1049): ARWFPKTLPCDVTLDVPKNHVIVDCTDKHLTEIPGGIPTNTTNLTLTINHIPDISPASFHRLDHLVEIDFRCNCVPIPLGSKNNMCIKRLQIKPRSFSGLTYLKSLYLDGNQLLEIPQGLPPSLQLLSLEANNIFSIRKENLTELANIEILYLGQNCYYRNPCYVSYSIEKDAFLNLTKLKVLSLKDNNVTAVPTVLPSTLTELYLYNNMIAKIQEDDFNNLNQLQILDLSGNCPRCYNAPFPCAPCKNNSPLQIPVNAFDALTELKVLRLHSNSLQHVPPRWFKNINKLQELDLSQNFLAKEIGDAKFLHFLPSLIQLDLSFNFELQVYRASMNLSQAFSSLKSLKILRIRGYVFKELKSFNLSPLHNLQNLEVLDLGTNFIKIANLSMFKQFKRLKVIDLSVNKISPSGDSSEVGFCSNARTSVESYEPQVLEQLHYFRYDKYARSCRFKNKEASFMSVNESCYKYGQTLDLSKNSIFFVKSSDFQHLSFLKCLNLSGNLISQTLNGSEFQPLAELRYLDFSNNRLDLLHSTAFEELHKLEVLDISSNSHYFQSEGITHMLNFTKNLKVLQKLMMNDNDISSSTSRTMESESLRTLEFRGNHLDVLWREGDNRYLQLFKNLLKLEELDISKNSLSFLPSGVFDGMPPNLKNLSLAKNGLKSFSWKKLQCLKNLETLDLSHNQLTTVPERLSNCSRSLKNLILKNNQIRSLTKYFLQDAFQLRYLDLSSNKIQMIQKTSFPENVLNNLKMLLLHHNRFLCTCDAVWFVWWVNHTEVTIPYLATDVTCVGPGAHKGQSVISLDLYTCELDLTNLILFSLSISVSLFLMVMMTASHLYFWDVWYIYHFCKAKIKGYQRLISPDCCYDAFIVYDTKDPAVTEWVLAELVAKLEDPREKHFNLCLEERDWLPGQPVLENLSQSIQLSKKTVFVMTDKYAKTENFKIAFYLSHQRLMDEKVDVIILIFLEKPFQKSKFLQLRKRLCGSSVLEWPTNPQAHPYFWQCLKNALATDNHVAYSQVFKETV
How it was run: (§1)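 HEK-Blue cells expressing human TLR7 or TLR8 with NF-kB/AP1-inducible SEAP reporter, plated 24 h, then compound-treated 18 h at 37° C, 5% CO2. EC50 normalized to 100% Ymax set by 50 μM reference standard.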

THP-1 cells = assay: Measurement of IL-1β production, hTRF protocol (second alternative procedure), THP-1 cells; assay type: cell-based, human; conditions: read-out: NLRP3 hILIB EC50
How it was run: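 THP-1 cells differentiated overnight with 50 ng/ml PMA, then plated at 50,000 cells/well in RPMI with 2% FBS onto serial compound dilutions (top final concentration 10 μM) for 2 hours at 37° C. Supernatant IL-1β measured by hTRF (antibodies at 1:40, overnight at 4° C), read at 665/615 nm against a standard curve.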

TLR8 = target: T2, TLR8 (Homo sapiens, UniProt Q9NR97); assay: In vitro human TLR8 binding reporter assay (HEK-Blue, NF-kB/AP1-inducible SEAP); assay type: cell-based; conditions: read-out: TLR8 Agonist EC50
T2 construct: human HEK-Blue cells co-expressing a TLR7 or TLR8 gene
T2 sequence (Q9NR97 27-1041): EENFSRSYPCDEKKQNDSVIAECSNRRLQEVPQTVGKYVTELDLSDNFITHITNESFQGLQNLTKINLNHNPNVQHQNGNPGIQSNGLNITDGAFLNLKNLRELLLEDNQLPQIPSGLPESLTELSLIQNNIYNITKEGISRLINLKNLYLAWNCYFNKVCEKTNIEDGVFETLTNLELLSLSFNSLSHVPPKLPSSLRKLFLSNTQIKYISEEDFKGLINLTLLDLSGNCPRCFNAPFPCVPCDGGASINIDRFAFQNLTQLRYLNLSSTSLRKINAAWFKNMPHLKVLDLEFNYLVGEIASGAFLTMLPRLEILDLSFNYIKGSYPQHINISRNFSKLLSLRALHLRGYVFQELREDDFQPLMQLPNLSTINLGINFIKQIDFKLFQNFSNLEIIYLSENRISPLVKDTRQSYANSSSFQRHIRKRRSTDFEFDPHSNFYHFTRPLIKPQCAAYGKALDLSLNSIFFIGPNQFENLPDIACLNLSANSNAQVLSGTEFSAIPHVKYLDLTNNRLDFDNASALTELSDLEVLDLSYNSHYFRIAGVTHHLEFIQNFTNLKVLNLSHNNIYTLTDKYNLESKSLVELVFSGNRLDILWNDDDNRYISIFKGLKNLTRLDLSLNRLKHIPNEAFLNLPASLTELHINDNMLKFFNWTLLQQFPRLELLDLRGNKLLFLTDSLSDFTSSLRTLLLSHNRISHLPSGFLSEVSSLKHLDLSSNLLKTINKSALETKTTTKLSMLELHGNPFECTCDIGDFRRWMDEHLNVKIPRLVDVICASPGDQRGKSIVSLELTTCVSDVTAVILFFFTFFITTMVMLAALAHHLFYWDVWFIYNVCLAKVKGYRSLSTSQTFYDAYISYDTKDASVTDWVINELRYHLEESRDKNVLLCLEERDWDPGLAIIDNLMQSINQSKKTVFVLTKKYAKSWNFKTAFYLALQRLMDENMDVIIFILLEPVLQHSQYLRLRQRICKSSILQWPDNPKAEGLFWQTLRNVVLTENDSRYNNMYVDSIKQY
How it was run: as §1

[1] = Homo sapiens, THP-1, IL-1β production, human cells
[2] = Homo sapiens, THP-1, IL-1β production, human

Row | Structure (SMILES) | EC50 (TLR7; activity range) [µM] | EC50 (THP-1 cells; [1]) [µM] | EC50 (TLR8; activity range) [µM] | EC50 (TLR7; activity range class) [µM] | EC50 (THP-1 cells; [2]) [µM] | EC50 (TLR8; activity range class) [µM] | EC50 (THP-1 cells; IL-1β production, human) [µM]
1 | CCNCc1cc2c(N)nc3cc(-c4cc[nH]n4)ccc3c2[nH]1 [Example 420] | > 100 | 0.51 | > 100 | – | – | – | –
2 | Nc1nc2cc(-c3cc[nH]n3)ccc2c2c1cnn2CCCO [Example 216] | – | – | – | > 100 | 3.04 | > 100 | –
3 | Nc1nc2cc(-c3cc[nH]n3)ccc2c2nn(Cc3cccnn3)cc12 [Example 360] | – | – | – | > 100 | 0.11 | > 100 | –
4 | CC[C@H](O)Cn1cc2c(N)nc3cc(-c4cc[nH]n4)ccc3c2n1 [Example 367] | – | – | – | > 100 | 0.23 | > 100 | –
5 | Nc1nc2cc(-c3cc[nH]n3)ccc2c2nn(CCNC(=O)c3ccccn3)cc12 [Example 150, N-{2-[4-amino-7-(1H-pyrazol-3-yl)-2H-pyrazolo[4,3-c]quinolin-2-yl]ethyl}pyridine-2-carboxamide] | – | – | – | > 100 | 0.07 | > 100 | –
6 | CC(C(=O)N1CCS(=O)(=O)CC1)n1cc2c(N)nc3cc(-c4ccn[nH]4)ccc3c2n1 (stereo not drawn) [Example 575] | > 100 | 19.7 | > 100 | – | – | – | –
7 | Cc1nc(C(=O)NC(C)(C)Cn2cc3c(N)nc4cc(-c5cc[nH]n5)ccc4c3n2)co1 [Example 467] | > 100 | 0.94 | > 100 | – | – | – | –
8 | Nc1nc2cc(-c3cc[nH]n3)ccc2c2cn(CCCOc3ccc(F)cc3)nc12 [Example 6] | – | – | – | > 100 | 0.56 | > 100 | –
9 | CS(=O)(=O)NCCc1cc2c(N)nc3cc(-c4cc[nH]n4)ccc3c2[nH]1 [Example 481] | > 100 | 0.38 | > 100 | – | – | – | –
10 | Nc1nc2cc(-c3cc[nH]n3)ccc2c2c1cnn2CC(O)CO (stereo not drawn) [Example 235] | – | – | – | > 100 | 12.5 | > 100 | –
11 | CC(CCO)n1cc2c(n1)c(N)nc1cc(-c3ccn[nH]3)ccc12 (stereo not drawn) [Example 454] | > 100 | 0.37 | > 100 | – | – | – | –
12 | CC(CC(=O)NC1CCC1)n1cc2c(N)nc3cc(-c4cc[nH]n4)ccc3c2n1 (stereo not drawn) [Example 622] | > 100 | 7.28 | > 100 | – | – | – | –
13 | CC(C)(C(=O)N1CC(F)(F)C1)n1cc2c(N)nc3cc(-c4cc[nH]n4)ccc3c2n1 [Example 523] | > 100 | 7.3 | > 100 | – | – | – | –
14 | COCCOCCn1cc2c(n1)c(N)nc1cc(-n3cccn3)ccc12 [Example 15] | – | – | – | 20 to 100 | 1.81 | > 100 | –
15 | CCN(CC)CCCc1nc2c(N)nc3cc(-c4ccn[nH]4)ccc3c2s1 [Example 144, 2-[3-(diethylamino)propyl]-7-(1H-pyrazol-5-yl)-[1,3]thiazolo[4,5-c]quinolin-4-amine] | – | – | – | > 100 | 0.66 | > 100 | –
16 | CC(=O)N(C)CCn1cc2c(n1)c(N)nc1cc(-c3cc[nH]n3)ccc12 [Example 119, N-{2-[4-amino-7-(1H-pyrazol-3-yl)-2H-pyrazolo[3,4-c]quinolin-2-yl]ethyl}-N-methylacetamide] | – | – | – | > 100 | 9.02 | > 100 | –

Row | Structure (SMILES) | EC50 (TLR7; activity range) [µM] | EC50 (THP-1 cells; [1]) [µM] | EC50 (TLR8; activity range) [µM] | EC50 (TLR7; activity range class) [µM] | EC50 (THP-1 cells; [2]) [µM] | EC50 (TLR8; activity range class) [µM] | EC50 (THP-1 cells; IL-1β production, human) [µM]
17 | CCC(=O)NCCn1cc2c(n1)c(N)nc1cc(-c3cc[nH]n3)ccc12 [Example 48] | – | – | – | > 100 | 5.2 | > 100 | –
18 | CC(C)(Cn1cc2c(N)nc3cc(-c4ccn[nH]4)ccc3c2n1)C(=O)NC1CCC1 [Example 598] | > 100 | 1.98 | > 100 | – | – | – | –
19 | Nc1nc2cc(-c3cc[nH]n3)ccc2c2cn(CCNC(=O)c3cccc(C(F)(F)F)n3)nc12 [Example 90] | – | – | – | 20 to 100 | 0.08 | 20 to 100 | –
20 | Nc1nc2cc(-c3cc[nH]n3)ccc2c2cn(CCNCc3cccc(F)c3)nc12 [Example 106] | – | – | – | 20 to 100 | 1.91 | 20 to 100 | –
21 | CCS(=O)(=O)N[C@@H](C)Cn1cc2c(N)nc3cc(-c4cc[nH]n4)ccc3c2n1 [Example 465] | > 100 | 1.9 | > 100 | – | – | – | –
22 | Nc1nc2cc(-c3ccn[nH]3)ccc2c2sc(CCCOCc3ccccc3)nc12 [Example 141, 2-[3-(benzyloxy)propyl]-7-(1H-pyrazol-3-yl)-[1,3]thiazolo[4,5-c]quinolin-4-amine] | – | – | – | > 100 | 6.28 | ≤ 1 | –
23 | Nc1nc2cc(-c3cc[nH]n3)ccc2c2[nH]c(CN[C@@H]3CCOC3)cc12 [Example 422] | > 100 | 0.14 | > 100 | – | – | – | –
24 | COc1cccc(C(=O)NCCn2cc3c(n2)c(N)nc2cc(-c4cc[nH]n4)ccc23)n1 [Example 65] | – | – | – | > 100 | 0.35 | 20 to 100 | –
25 | CC(CCO)n1cc2c(N)nc3cc(-c4ccn[nH]4)ccc3c2n1 (stereo not drawn) [Example 281] | – | – | – | > 100 | 0.24 | > 100 | –
26 | CS(=O)(=O)NCCn1cc2c(N)nc3cc(-c4cc[nH]n4)ccc3c2n1 [Example 206, N-(2-(4-amino-7-(1H-pyrazol-3-yl)-2H-pyrazolo[4,3-c]quinolin-2-yl)ethyl)methanesulfonamide] | – | – | – | > 100 | 0.26 | > 100 | –
27 | Nc1nc2cc(-c3cc[nH]n3)ccc2c2cn(CCCOc3cccc(F)c3)nc12 [Example 5] | – | – | – | > 100 | 0.35 | > 100 | –
28 | COCCNC(=O)C(C)n1cc2c(N)nc3cc(-c4ccn[nH]4)ccc3c2n1 (stereo not drawn) [Example 581] | > 100 | 3.17 | > 100 | – | – | – | –
29 | COCC(C)n1cc2c(N)nc3cc(-c4cc[nH]n4)ccc3c2n1 (single isomer, unassigned) [Example 338] | – | – | – | > 100 | – | > 100 | 0.39
30 | Nc1nc2cc(-c3cc[nH]n3)c(Cl)cc2c2cn(CCNC(=O)c3ccc(F)cn3)nc12 [Example 195, N-(2-(4-amino-8-chloro-7-(1H-pyrazol-3-yl)-2H-pyrazolo[3,4-c]quinolin-2-yl)ethyl)-5-fluoropicolinamide] | – | – | – | > 100 | 2.15 | 20 to 100 | –
31 | CC(C(=O)N(C)CCO)n1cc2c(N)nc3cc(-c4ccn[nH]4)ccc3c2n1 (stereo not drawn) [Example 584] | > 100 | 5.03 | > 100 | – | – | – | –
32 | CCn1c(CNC(C)=O)cc2c(N)nc3cc(-n4cccn4)ccc3c21 [Example 448] | > 100 | 1.78 | > 100 | – | – | – | –
